Literature values in publication PMC7318425 (Bioorganic & medicinal chemistry letters, 2019).

System: off-target kinases
Conditions: KinomeScan, compared with ibrutinib

Question: For `Nc1ncnc2c1c(-c1ccc(Oc3ccccc3)cc1)nn2C1CCN(CCOCCOCC(=O)Nc2ccc3c(c2)C(=O)N(C2CCC(=O)NC2=O)C3=O)CC1` (stereo not shown) [MT802], which off-target kinase binding is on record?
Answer: binds fewer off-target kinases than ibrutinib
